Measured values from patent publication US20230165970A1, “COMPOSITIONS AND METHODS FOR THE TREATMENT OF BACTERIAL INFECTIONS” (priority 2017, published 2023).
In brackets after ≈: the same amount, converted by molar mass. *1 amine or outer side, *2 acyl side, *3 side chain or, on linkers, in order; H or OH if unused. Where a SMILES comes first, the peptide text is derived from it. Bridges are numbered along the chain shown (N, C = ends). Roman numbers before positions name the chains, in order. [ ]: non-standard residue; d: D form. The star is where a group is joined. X5 = C#CCOCCOCCOCCOCCN1C[C@@H](C(=O)[*:1])[C@H](C(=O)[*:2])C1; X2 = O=C([C@@H](N[*:1])[C@H](O)CCC(F)(F)F)[*:2]; Propargyl(OCH2CH2)4CO = C#CCOCCOCCOCCOCCC(=O)*; X3 = CCCCC[C@@H](O)[C@H](N[*:1])C(=O)[*:2]; azaDab = NCCN(N[*:1])C(=O)[*:2]; Aoc(2) = CCCCCC[C@H](N)C(=O)O; hLeu = CC(C)CC[C@H](N)C(=O)O; Nle = CCCC[C@H](N)C(=O)O; Dab = NCC[C@H](N)C(=O)O; azaGly = NNC(=O)O

Columns and labels:
[1] = tested on: Ec COL^R LPS: colistin-resistant (MCR-1) strain (AR0349); experiment: Lethal mouse endotoxemia model (LD95 purified LPS IP); type: in vivo, C57BL/6J mice; conditions: (D) Endotoxemia (Ec COL^R LPS); 5 mg/kg IV, single, -1 hr; survival after three days
Method: (§1) Studies (B)-(D) shown in Table 22 summarizes the efficacy of compounds in lethal models of endotoxemia. In these models 6 week old C57I/6J immune competent mice (Jackson Laboratory) were challenged IP with purified lipopolysaccharide (LPS) in PBS at an LD95. For all studies, LPS was obtained from Sigma (catalog numbers in the table footnote) or were purified using a kit obtained from iNtRON Biotechnology Inc. (cat #17141). One hour prior to LPS challenge mice were dosed with test articles as indicated (Table 22). The results of these studies indicate that compounds are able to neutralize the lethal effects of LPS in a severe endotoxemia/sepsis model.
End point was survival after 3 days. Ec: E. coli 0111:B34, Sigma cat #L4130; Ab: Acinetobacter baumannii 5075; Kp: Klebsiella pneumonia 10, Sigma cat #L4268; Ng: Neisseria gonorrhoeae 19424; Ec 026:B86, Sigma cat #L2762; Pm: Proteus mirabilis, Sigma cat #SMB00704; Sm: Serratia marcescens, Sigma cat #L6016; Pa: Pseudomonas aeruginosa 10. […] Purified LPS used for all endotoxemia studies and if not denoted by a Sigma catalog number the LPS was purified in-house using an iNtRON #17141 purification kit. *Delayed death, at the time Fc only animals reached 100% mortality all Conjugate 41 mice were still alive.

Ab 19606 (COLhet^R) = type: cell-based, Acinetobacter baumannii; conditions: media CA-MHB
Ec 25922 64X-1 (COL^R) = type: cell-based, Escherichia coli; conditions: media CA-MHB
Ec AR0349 (mcr-1, COL^R) = type: cell-based, Escherichia coli; conditions: media CA-MHB
Sa RN = type: cell-based
Ec LPS: E. coli 0111:B4 = experiment: Lethal mouse endotoxemia model (LD95 purified LPS IP); type: in vivo, C57BL/6J mice; conditions: (B) Endotoxemia (Ec LPS); 1 mg/kg IV, single, -1 hr; survival after three days
Method: as §1
End point was survival after 3 days. Ec: E. coli 0111:[…] (Sigma cat #L4130); Ab: Acinetobacter baumannii 5075 (iNtRON cat #17141); Ng: Neisseria gonorrhoeae 19424 (iNtRON cat #17141); COL: colistin.
End point was survival after 3 days. Ec: E. coli 0111:B34, Sigma cat #L4130; Ab: Acinetobacter baumannii 5075; Kp: Klebsiella pneumonia 10, Sigma cat #L4268; Ng: Neisseria gonorrhoeae 19424; Ec 026:B86, Sigma cat #L2762; Pm: Proteus mirabilis, Sigma cat #SMB00704; Sm: Serratia marcescens, Sigma cat #L6016; Pa: Pseudomonas aeruginosa 10. […]

E. coli 25922 = conditions: (A) Bacteremia (E. coli); 5 mg/kg IV, single, +1 hr; survival after three days; N=3
Method: In vivo screening of selected compounds was accomplished in an E. coli bacteremia model (N=3). Efficacy was assessed in an animal model of infection using CD-1 mice by evaluating bacteremia in immune competent mice challenged with 2× the LD95 of E. coli 25922 (dosed qd, intraperitoneally (IP) at T+1 hour, survival endpoint).
Colistin (COL) and Int-17 were dosed at 0.3 mg/kg and Int-41 was dosed at 3.0 mg/kg. Percent survival was determined 72 hours after bacterial challenge. Compounds with MICs against E. coli 25922 of less than 4 μg/ml were evaluated in the bacteremia model.
Int-115 and Int-118 were evaluated for potency in a lethal model of bacteremia. […] Test articles were dissolved in 1× PBS and injected IV at a dose volume of 10 ml/kg one hour following bacterial challenge. Animals were monitored twice daily and mortality scored over three days.
CD-1 mice were used for bacteremia, C57BL/6J mice for endotoxemia. The endpoint was survival after three days for both models.

Structure (SMILES) | % survival [1] [%] | MIC (Ab 19606 (COLhet^R)) [mg/L] | MIC (Ec 25922 64X-1 (COL^R)) [mg/L] | MIC (Ec AR0349 (mcr-1, COL^R)) [mg/L] | MIC (Sa RN) [mg/L] | % survival (Ec LPS: E. coli 0111:B4) [%] | % survival (E. coli 25922) [%]
C#CCOCCOCCOCCOCCN1C[C@@H](C(=O)N[C@@H](CCCC)C(=O)N[C@@H](CCN)C(=O)N[C@H](C(=O)NNC(=O)N[C@H]2CCNC(=O)[C@H]([C@@H](C)O)NC(=O)[C@H](CCN)NC(=O)[C@H](CCN)NC(=O)[C@H](CC(C)C)NC(=O)[C@@H](Cc3ccccc3)NC(=O)[C@H](CCN)NC2=O)[C@@H](C)O)[C@H](C(=O)N[C@@H](CCCC)C(=O)N[C@@H](CCN)C(=O)N[C@H](C(=O)NNC(=O)N[C@H]2CCNC(=O)[C@H]([C@@H](C)O)NC(=O)[C@H](CCN)NC(=O)[C@H](CCN)NC(=O)[C@H](CC(C)C)NC(=O)[C@@H](Cc3ccccc3)NC(=O)[C@H](CCN)NC2=O)[C@@H](C)O)C1 [Int-120] (I: [Nle][Dab]T[azaGly][Dab][Dab][dF]L[Dab][Dab]T / II: [Nle][Dab]T[azaGly][Dab][Dab][dF]L[Dab][Dab]T; lactam I:5-I:C, II:5-II:C; linker I:N-II:N via X5) | 100 | 2 (≈ 0.767 µM) | 2 (≈ 0.767 µM) | 2 (≈ 0.767 µM) | >128 |  | 
C#CCOCCOCCOCCOCCC(=O)N[C@@H](CCC(C)C)C(=O)N[C@@H](CCN)C(=O)N[C@H](C(=O)NN(CCN)C(=O)N[C@H]1CCNC(=O)[C@H]([C@@H](C)O)NC(=O)[C@H](CCN)NC(=O)[C@H](CCN)NC(=O)[C@H](CC(C)C)NC(=O)[C@@H](Cc2ccccc2)NC(=O)[C@H](CCN)NC1=O)[C@@H](C)O [Int-127] ({Propargyl(OCH2CH2)4CO}-[hLeu][Dab]T[azaDab][Dab][Dab][dF]L[Dab][Dab]T; lactam 5-C) |  | 2 (≈ 1.39 µM) | 64 (≈ 44.6 µM) | 8 (≈ 5.58 µM) | >128 |  | 
C#CCOCCOCCOCCOCCC(=O)N[C@@H](CCCCCC)C(=O)N[C@@H](CCN)C(=O)N[C@H](C(=O)NN(CCN)C(=O)N[C@H]1CCNC(=O)[C@H]([C@@H](C)O)NC(=O)[C@H](CCN)NC(=O)[C@H](CCN)NC(=O)[C@H](CC(C)C)NC(=O)[C@@H](Cc2ccccc2)NC(=O)[C@H](CCN)NC1=O)[C@@H](C)O [Int-129] ({Propargyl(OCH2CH2)4CO}-[Aoc(2)][Dab]T[azaDab][Dab][Dab][dF]L[Dab][Dab]T; lactam 5-C) |  |  |  |  | >128 | 100 | 
C#CCOCCOCCOCCOCCC(=O)N[C@@H](CCCCCC)C(=O)N[C@@H](CCN)C(=O)N[C@H](C(=O)N[C@@H](CCN)C(=O)N[C@H]1CCNC(=O)[C@H]([C@@H](C)O)NC(=O)[C@H](CCN)NC(=O)[C@H](CCN)NC(=O)[C@H](CC(C)C)NC(=O)[C@@H](Cc2ccccc2)NC(=O)[C@H](CCN)NC1=O)[C@H](O)CCC(F)(F)F [Int-118] ({Propargyl(OCH2CH2)4CO}-[Aoc(2)][Dab][X2][Dab][Dab][Dab][dF]L[Dab][Dab]T; lactam 5-C) |  |  |  |  | >128 |  | 66
C#CCOCCOCCOCCOCCC(=O)N[C@@H](CCC(C)C)C(=O)N[C@@H](CCN)C(=O)N[C@H](C(=O)NNC(=O)N[C@H]1CCNC(=O)[C@H]([C@@H](C)O)NC(=O)[C@H](CCN)NC(=O)[C@H](CCN)NC(=O)[C@H](CC(C)C)NC(=O)[C@@H](Cc2ccccc2)NC(=O)[C@H](CCN)NC1=O)[C@H](O)CCCCC [Int-116] ({Propargyl(OCH2CH2)4CO}-[hLeu][Dab][X3][azaGly][Dab][Dab][dF]L[Dab][Dab]T; lactam 5-C) |  | 1 (≈ 0.691 µM) | 64 (≈ 44.2 µM) | 8 (≈ 5.53 µM) | >128 |  | 
